In EP0019524A1, “Process for preparing flavilium derivatives, products obtained by the processus and their therapeutical application” (SOCIETE DE RECHERCHES INDUSTRIELLES SORI, priority 1979, dated 1980):

Tests used:
[1] = Acute toxicity (LD50), method of Litchfield et al.; details: in vivo, ip; mouse, intraperitoneal route; read-out: DL-50 I.P. souris
Experimental: La toxicité a été déterminée chez la souris par voie intrapéritonéale selon la méthode de J.T. LITCHFIELD et al., J. Pharmacol. Exptl. Therap. (1949), 96, 99. La DL-50 I.P. souris des produits III et IV est de 750 mg/kg. Les produits de formule (I) ne sont donc pas toxiques.

hématies = assay: Erythrocyte deformability: filtration rate of erythrocyte suspension and plasma (Schmid-Schönbein technique) in hyperlipidemic monkeys; assay type: in vivo, singe; details: monkeys on hyperlipidic diet, 20 mg/kg per os per day for 8 months, mean, 5 µ filter, 50 mm water pressure
Text: La déformabilité des hématies a été mesurée selon la technique de SCHMID-SCHONBEIN et al., Blut (1973), 26, 369-379, par filtration (diamètre des pores du filtre : 5µ) sous une pression constante de 50 mm d'eau, d'une suspension d'hématies amenée à un hématocrite de 10% par dilution dans un plasma autologue. La phase de suspension est également filtrée selon la même technique. On peut apprécier ainsi l'intensité de certaines maladies car le taux de filtration de la suspension d'hématies et/ou de la phase de plasma est modifié par les maladies du métabolisme telles que le diabète et l'hyperlipidémie.
Le taux de filtration des hématies a été déterminé in vivo chez le singe rendu hyperlipidémique après absorption d'un régime gras. Les composés à tester ont été administrés per os à la dose quotidienne de 20 mg/kg pendant 8 mois à des lots de singes : un lot recevant un régime normal, un lot recevant un régime gras, les autres lots recevant le régime gras et un des composés à tester. Les résultats donnés dans le tableau ci-après sont exprimés sous forme d'une moyenne et représentent la vitesse de filtration des hématies ou du plasma en µl/s. La signification statistique des résultats est très bonne (p <( 0,001).

patients = assay: Clinical trial in hyperlipidemic and hypertensive patients; assay type: in vivo; details: 21 days
Experimental: On a résumé enfin les résultats des essais cliniques qui ont été entrepris avec le composé III pendant 21 jours sur 65 patients (30 patients étant hyperlipidiques et les 35 autres patients souffrant d'hypertension artérielle), un lot de patients recevant 3 comprimés ou 3 glossettes par jour renfermant chacun 10 mg de composé III, un autre lot recevant une injection quotidienne de 10 mg de composé III. La tolérance de ce produit s'est révélée excellente puisque la condition de 51 patients (c'est-à-dire 78,4%) a été considérablement améliorée.

[2] = of 65 patients (30 hyperlipidemic, 35 arterial hypertension), 3 x 10 mg oral/sublingual or 10 mg injection per day

Compound	LD50 [1] [mg/kg]	Vitesse de filtration du plasma (hématies)	Vitesse de filtration des hématies (hématies; hematocrit 10%)	tolérance (patients; 65 patients, 3 tablets or sublingual tablets of 10 mg per day, or one daily injection of 10 mg)	patients dont la condition a été considérablement améliorée (patients; [2])	patients dont la condition a été considérablement améliorée (nombre) (patients; [2]) [patients]
COc1cc(OC)c2cc(O[C@@H]3O[C@H](CO[C@@H]4O[C@@H](C)[C@H](O)[C@@H](O)[C@H]4O)[C@@H](O)[C@H](O)[C@H]3O)c(-c3ccc(OC)c(OC)c3)[o+]c2c1 [composé IV, chlorurede 3-[6-0-(6-désoxy-α-L-mannopyranosyl)-β-D-glucopyranosyloxy]-3',4', 5,7-tétraméthoxy-flavylium]	750					
C[C@@H]1O[C@@H](OC[C@H]2O[C@@H](Oc3cc4c(O)cc(O)cc4[o+]c3-c3ccc(O)c(O)c3)[C@H](O)[C@@H](O)[C@@H]2O)[C@H](O)[C@H](O)[C@H]1O [composé III, chlorurede 3-[6-0-(6-désoxy-α-L-mannopyranosyl)-β-D-glucopy-ranosyloxy]-3',4',5,7-tétrahydroxy-flavylium]	750	55,92 ± 4,78 µl/s	43,97 ± 2,30 µl/s	excellente	78,4%	51
